Calls of active or inactive are those of the source. The calls are words filed in the database; no cut-off is given here.
Assays:
[1] = biological target: T1, Glucocorticoid receptor (Homo sapiens, UniProt P04150); experiment: Displacement of [3H]DEX from human glucocorticoid receptor
T1 sequence (P04150 whole entry): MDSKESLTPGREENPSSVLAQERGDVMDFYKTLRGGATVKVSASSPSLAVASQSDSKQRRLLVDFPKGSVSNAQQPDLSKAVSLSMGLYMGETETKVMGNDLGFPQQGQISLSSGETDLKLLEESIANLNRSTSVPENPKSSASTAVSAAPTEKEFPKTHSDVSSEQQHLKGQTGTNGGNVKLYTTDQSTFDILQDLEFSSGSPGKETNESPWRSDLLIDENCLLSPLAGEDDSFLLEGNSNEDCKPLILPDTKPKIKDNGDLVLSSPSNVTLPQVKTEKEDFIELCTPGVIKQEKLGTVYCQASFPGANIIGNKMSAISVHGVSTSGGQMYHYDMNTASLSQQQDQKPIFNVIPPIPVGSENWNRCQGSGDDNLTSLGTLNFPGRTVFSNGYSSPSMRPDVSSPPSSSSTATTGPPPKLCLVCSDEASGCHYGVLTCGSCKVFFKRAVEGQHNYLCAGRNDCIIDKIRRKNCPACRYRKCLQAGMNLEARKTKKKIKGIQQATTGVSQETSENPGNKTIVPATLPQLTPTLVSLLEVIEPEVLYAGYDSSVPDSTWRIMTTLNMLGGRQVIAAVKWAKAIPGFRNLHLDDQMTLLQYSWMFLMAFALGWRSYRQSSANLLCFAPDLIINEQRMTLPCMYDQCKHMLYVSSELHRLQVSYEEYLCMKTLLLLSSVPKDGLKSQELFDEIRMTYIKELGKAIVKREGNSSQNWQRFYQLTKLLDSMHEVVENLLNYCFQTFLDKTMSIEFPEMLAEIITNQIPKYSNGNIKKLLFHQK

[2] = biological target: T2, Peroxisome proliferator-activated receptor gamma (Homo sapiens) (UniProt P37231); experiment: Displacement of fluoromone from human recombinant PPARgamma assessed as reduction of maximum polarization by fluorescence polarization assay
T2 sequence (whole entry): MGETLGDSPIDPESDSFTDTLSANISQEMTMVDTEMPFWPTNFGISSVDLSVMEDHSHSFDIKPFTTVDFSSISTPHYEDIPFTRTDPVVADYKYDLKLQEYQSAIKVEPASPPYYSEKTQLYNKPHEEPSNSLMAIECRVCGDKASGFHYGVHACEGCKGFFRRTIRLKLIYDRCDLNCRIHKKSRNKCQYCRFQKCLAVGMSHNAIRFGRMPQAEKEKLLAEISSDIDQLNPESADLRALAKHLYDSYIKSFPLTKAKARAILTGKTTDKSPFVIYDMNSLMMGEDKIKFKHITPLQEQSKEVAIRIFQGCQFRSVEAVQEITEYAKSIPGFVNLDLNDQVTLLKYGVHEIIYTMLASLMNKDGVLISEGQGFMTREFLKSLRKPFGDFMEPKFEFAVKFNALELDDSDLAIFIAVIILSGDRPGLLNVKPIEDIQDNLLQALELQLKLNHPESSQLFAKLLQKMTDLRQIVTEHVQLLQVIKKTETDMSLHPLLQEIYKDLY

[3] = biological target: T3, Glucocorticoid receptor (Homo sapiens) (UniProt P04150); experiment: Displacement of fluoromone from human glucocorticoid receptor LBD at 10 uM assessed as reduction of maximum polarization by fluorescence polarization assay relative to control; parameters: scale not given: the % may be the effect or the level left
T3 sequence (whole entry): T1 sequence (P04150 whole entry)

[4] = biological target: T4, Estrogen receptor (Homo sapiens) (UniProt P03372); experiment: Displacement of fluoromone from human recombinant ERalpha assessed as reduction of maximum polarization by fluorescence polarization assay
T4 sequence (whole entry): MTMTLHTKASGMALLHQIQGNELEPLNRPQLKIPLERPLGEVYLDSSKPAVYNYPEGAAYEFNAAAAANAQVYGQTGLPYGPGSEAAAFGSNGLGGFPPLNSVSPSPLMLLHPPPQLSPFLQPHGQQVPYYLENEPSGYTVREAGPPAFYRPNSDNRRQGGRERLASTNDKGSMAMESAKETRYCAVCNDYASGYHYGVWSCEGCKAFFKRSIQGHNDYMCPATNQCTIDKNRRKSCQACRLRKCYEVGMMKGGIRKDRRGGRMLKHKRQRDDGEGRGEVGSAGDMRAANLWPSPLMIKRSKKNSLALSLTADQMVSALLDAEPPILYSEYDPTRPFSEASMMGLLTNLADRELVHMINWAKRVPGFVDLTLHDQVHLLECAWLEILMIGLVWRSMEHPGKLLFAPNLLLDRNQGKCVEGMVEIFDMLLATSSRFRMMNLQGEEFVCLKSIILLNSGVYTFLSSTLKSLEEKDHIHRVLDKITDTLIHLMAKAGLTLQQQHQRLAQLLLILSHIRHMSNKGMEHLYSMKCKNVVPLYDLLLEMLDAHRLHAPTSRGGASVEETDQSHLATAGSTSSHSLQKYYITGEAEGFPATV

[5] = biological target: T3, Glucocorticoid receptor (Homo sapiens); experiment: Transrepression activity at glucocorticoid receptor in human A549 cells assessed as inhibition of IL-1-alpha-induced IL6 expression at 10 uM after 24 hrs by ELISA; type: cell-based
[6] = biological target: Estrogen receptor beta (Homo sapiens) (UniProt Q92731); experiment: Displacement of fluoromone from human recombinant ERbeta assessed as reduction of maximum polarization by fluorescence polarization assay
Estrogen receptor beta (Homo sapiens), sequence (Q92731 whole entry): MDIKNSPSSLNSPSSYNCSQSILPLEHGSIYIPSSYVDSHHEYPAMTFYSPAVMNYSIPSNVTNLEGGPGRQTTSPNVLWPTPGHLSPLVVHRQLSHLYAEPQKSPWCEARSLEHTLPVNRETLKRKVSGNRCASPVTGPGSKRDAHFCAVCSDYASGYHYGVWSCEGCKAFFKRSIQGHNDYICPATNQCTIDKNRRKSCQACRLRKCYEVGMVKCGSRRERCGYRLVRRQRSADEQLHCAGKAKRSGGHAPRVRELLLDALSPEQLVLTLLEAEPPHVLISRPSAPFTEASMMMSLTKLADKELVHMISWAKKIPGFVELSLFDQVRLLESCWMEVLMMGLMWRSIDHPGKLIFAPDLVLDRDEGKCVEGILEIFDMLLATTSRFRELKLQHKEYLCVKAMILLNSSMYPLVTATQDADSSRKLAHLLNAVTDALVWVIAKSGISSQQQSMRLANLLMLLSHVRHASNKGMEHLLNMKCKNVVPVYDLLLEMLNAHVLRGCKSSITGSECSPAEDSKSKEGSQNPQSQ

C=C1C(C)CCC(C)(C)[C@@H]1Cc1cc(OC)c(Br)cc1OC(C)=O (some centres undefined)
Ki [1]: 4110 nM

C=C1CCC(Br)C(C)(C)[C@H]1Cc1cc(OC)c(Br)cc1O (some centres undefined)
Ki [1]: 2470 nM

C=CC[C@@H]1Oc2ccc(OC#N)c(OC)c2-c2ccc3c(c21)C(C)=CC(C)(C)N3
Ki [1]: 51 nM

O=C1CC(c2ccccc2)CC2=C1C(c1cc(Cl)ccc1Cl)Nc1ccccc1N2 (centres undefined)
Activity [2]: inactive | Activity [3]: 65% | Activity [4]: inactive | inhibition [5]: inactive | Activity [6]: inactive

COc1c(Br)cc2ccccc2c1-c1c(OC)c(CO)cc2ccccc12
Activity [3]: 50%

COc1ccc2c(c1)-c1ccc3c(c1[C@H](c1ccccc1)O2)C(C)=CC(C)(C)N3
Ki [1]: 18 nM

C#Cc1cccc2c1-c1ccc3c(c1[C@H](CC=C)O2)C(C)=CC(C)(C)N3
Ki [1]: 6.9 nM

C=C1CCC(Br)C(C)(C)[C@@H]1Cc1cc(OC)c(Br)cc1O (some centres undefined)
Ki [1]: 3210 nM

C#COc1ccc2c(c1OC)-c1ccc3c(c1[C@H](CC=C)O2)C(C)=CC(C)(C)N3
Ki [1]: 4.2 nM

CC#C[C@@]1(O)CC[C@@]2(Cc3ccccc3)c3ccc(C(=O)NCc4ccncc4)cc3CC[C@@H]2C1
Ki [1]: 2 nM

— ChEMBL document CHEMBL1156190, “Virtual screening for the identification of novel nonsteroidal glucocorticoid modulators” (J Med Chem, 2010)
